Measurements: a melting point compilation (Tetko et al.; mined from patent text by program, amines drawn as free bases though some values may be those of a salt)

Row | Structure (SMILES) | melting point [°C]
1 | CCCCc1ccc(-c2cnc(-c3ccc(C#N)cc3)nc2)cc1 | 94.7
2 | COCCOc1cc(OCCN2CCCC2)c2c(=O)[nH]c(-c3cc(C)nc(C)c3)nc2c1 | 60.4 to 62.3
3 | CC1(C)OC(=O)Nc2ccc(-c3cccc(F)c3F)cc21 | 166 to 167
4 | CCOc1ccc(CCNC(=O)/C=C/c2cccs2)cc1S(=O)(=O)NC(=S)NC | 74
5 | CC(C)(CO)c1cc(OS(C)(=O)=O)ccc1O | 122 to 124
6 | COc1cccc(CC(=O)O)c1OCCCc1cn(-c2ncc(Cl)cc2Cl)nc1C(C)C | 105 to 106
7 | COc1ccc2c(c1)C(Cl)(C(F)(F)F)OC(=O)N2 (stereo not drawn) | 112 to 114
8 | CC(C)(C)OC(=O)N1C(COc2noc3ccc(Cl)cc23)COC1(C)C (stereo not drawn) | 117 to 118
9 | Cc1cc2[nH]c(=O)c(=O)[nH]c2cc1C | > 250
10 | CC(C)(C)SC1CN(C(=O)OCc2ccccc2)CC1NS(=O)(=O)c1ccc(Oc2ccccc2)cc1 (stereo not drawn) | 125 to 126
11 | COC=C(C(=O)OC)n1ccc2ccc(-c3csc(-c4ccccc4)n3)cc21 | 145 to 146
12 | CN(C)c1ncc(C(=O)N2CCOC(c3cccc(O)c3)C2)c(-c2ccccc2)n1 (stereo not drawn) | 140
13 | CCOC(=O)c1ccc(-c2cc3c(NCCCN4CCOCC4)ncnc3[nH]2)cc1 | 231 to 234
14 | COc1cc(C(C)=O)c(O)cc1OCCCCl | 99 to 101
15 | CCN(CC)CCOc1ccc(Nc2ncc3c(n2)N(c2cccc(CCO)c2)C(=O)N(c2ccccc2Br)C3)cc1 | 98
16 | Cc1c(C)c2c(c(C)c1N)CC(C)(CN1CCN(C(=O)c3ccc(Cl)cc3)CC1)O2 (stereo not drawn) | 136 to 138
17 | O=c1[nH]c2ccccc2n1CCCN1CCC(C(O)(c2ccc(F)cc2)c2ccc(F)cc2)CC1 | 141 to 143
18 | C=CCc1cc2c(c(CC=C)c1O)N(CC=C)C(=O)CO2 | 71 to 73
19 | COc1cc(NC(=O)OC(C)CN2CCC(c3nn(C)c4cc(F)ccc34)CC2)cc(OC)c1OC (stereo not drawn) | 74 to 77
20 | CN(C)c1cccc(CN2C(=O)C3(COc4cc5c(cc43)OCCO5)c3ccccc32)n1 (stereo not drawn) | 196 to 197
21 | COc1cccc2[nH]cc(/C(C#N)=C/c3cccnc3)c12 | 177
22 | O=C(O)/C=C/c1cn(Cc2ccc(OCc3csc(-c4ccccc4)n3)cc2)nc1-c1cccs1 | 137 to 138
23 | O=c1[nH]c2cccc(F)c2c(=O)n1CCCN1CC=C(c2ccc(Cl)cc2)CC1 | 201 to 202

Row | Structure (SMILES) | melting point [°C]
24 | CCCCCc1ccc(CCC2CCC(C#N)CC2)cc1 (stereo not drawn) | 22.4
25 | O=c1c2c(Cl)cc(Cl)cc2n(Cc2ccccc2)c(=O)n1Cc1cccc2ccccc12 | 220 to 226
26 | O=S(=O)(Nc1cccc(/C=C/c2ccccc2)c1)C(F)(F)F | 62 to 64
27 | Cc1c(-c2cccnc2)n(CCCCCC(=O)O)c2ccc(Cl)cc12 | 137 to 141
28 | CCN(C(=O)OC)c1c(C(=O)c2cnoc2C2CC2)ccc(S(C)(=O)=O)c1Cl | 128 to 131
29 | CCn1cc(C(=O)O)c(=O)c2cc(F)c(N3CC(C)(N)C3)c(F)c21 | 293 to 296
30 | Cc1ccccc1-c1ccc(O)c(C(=O)O)c1 | 151
31 | COC(=O)c1cccc(-c2nc(COc3ccc(COc4nn(-c5ccccc5)cc4/C=C/c4nc(N5CCOCC5)sc4C)cc3OC)c(C)o2)c1 | 183 to 184
32 | Cc1nc(N2CCN(Cc3ccc(F)cc3)C2=O)sc1C(=O)NCc1ccncn1 | 175 to 176
33 | CCN(CC)Cc1ccc2c(c1)ncn2-c1cccc(-c2nccs2)c1 | 152
34 | O=C(O)Cc1ccc(OCCNC(=O)C2Cc3ccccc3N2S(=O)(=O)c2ccc(-c3cccc(C(F)(F)F)c3)cc2)c(Cl)c1 (stereo not drawn) | 96
35 | CCOC(=O)C(=O)NNc1ccc([N+](=O)[O-])cc1 | 187 to 188
36 | COc1cccc(-c2nn3c(c2C(=O)O)-c2ccccc2CC3)c1 | 190
37 | Cc1ccc(C2=NC(C)(C(C)C)C(=O)N2)cc1 (stereo not drawn) | 151 to 154
38 | Cc1c(C)c(N2CCN(c3ccc(C(N)=O)cc3)CC2)c(C)c2c1OC(C)C2 (stereo not drawn) | 240 to 245
39 | O=C(O)c1cc(F)c(N(CCO)CCO)c(F)c1 | 146 to 150
40 | CC(=O)Nc1ccc2c(c1)N1CCCN=C1S2 | 178
41 | COc1cccc(S(=O)c2cccc(N)c2C#N)c1 (stereo not drawn) | 110 to 114
42 | CC(=O)c1c(O)cccc1OCC(O)COc1ccccc1C (stereo not drawn) | 101 to 102
43 | Cc1cc(Oc2ncc(C(F)(F)F)cc2Cl)nn1C(=O)Nc1cccc([N+](=O)[O-])c1 | 172 to 174
44 | CN1C(=S)NN2CCCC21c1ccccc1 (stereo not drawn) | 148 to 151
45 | Cc1oc(-c2ccccc2)nc1COc1ccc(CO)nc1 | 125 to 126
46 | COc1cc2c(cc1OC)-c1nccc3cccc(c13)C2=O | 250

More lines, now with the values ahead:

Row | melting point [°C] | Structure (SMILES)
47 | 224 to 226 | O=C(Nc1cccc2c1C(=O)c1c-2n[nH]c1-c1ccc(C(=O)NC2CCNCC2)s1)NN1CCOCC1
48 | 143 to 145 | COc1ccc2c(c1)C(N=Cc1cc(OC)c(OC)cc1[N+](=O)[O-])CCO2 (stereo not drawn)
49 | 79 to 81 | COC(=O)c1cc(Cl)cnc1OC
50 | 210 | O=C(O)CCCN1CCc2ccc(S(=O)(=O)Nc3ccc(Cl)cc3)cc2C1
51 | 220 to 222 | O=C(O)COc1ccc(-c2c3ccccc3cc3sc4cc(OCC(=O)O)ccc4c23)cc1
52 | 154 to 156 | O=C(c1ccccc1)n1cc(-c2ccccc2)c2ccccc21
53 | 83 to 84 | CC(=O)c1ccc(CNC(=O)C(F)(F)F)s1
54 | 138 to 143 | CN(C)c1cc2c(cc1Cl)NC(=O)CC(c1cccc(-c3nc(CN4CCOCC4)cs3)c1)=N2
55 | 164 to 165 | O=C(O)c1cccc2c1oc1ccccc12
56 | 300 to 302 | O=c1ccc2cnc(Nc3ccccc3)nc2n1-c1ccccc1
57 | 245 to 247 | CC1CCCCC1C(=O)Nc1ccc(-c2ncc(-c3ccc(NC(=O)c4cccnc4)cc3)[nH]2)cc1 (stereo not drawn)
58 | 247 | O=C(Nc1ccc2ccccc2c1-c1c(P(=O)(c2ccccc2)c2ccccc2)ccc2ccccc12)c1ccccc1
59 | 208 to 210 | CS(=O)(=O)Nc1cc(NC(=O)CN)c([N+](=O)[O-])cc1Oc1ccccc1
60 | 106 | CC(C)OC(=O)N[C@H](C(=O)N[C@H](CN)C(C)C)C(C)C
61 | 69 to 72 | O=C(Cn1cnnn1)OCc1ccccc1
62 | 159 | O=C(Nc1ccccc1S(=O)(=O)N1CCCCC1)N[C@@H](Cc1ccc(Oc2nccc3ccncc23)cc1)C(=O)O
63 | 167 to 169 | COC(=O)c1ccc(CCNC(=O)C[C@H]2O[C@H](c3cccc(OC)c3OC)c3cc(Cl)ccc3N(CC(C)(C)CO)C2=O)cc1
64 | 143 to 145 | O=C(Cc1ccccc1)Nc1ccc(CN2C(=O)[C@H]3CCC[C@H]3N(C(=O)CN3C(=O)c4ccccc4C3=O)c3ccccc32)cc1 (relative stereo)
65 | 197 to 199 | COc1ccc(NC(=O)c2ccc(Cl)c(Cl)c2)cc1NCc1cccc(F)c1
66 | 181 | CC(C)(O)CCOc1c(-c2ccc(S(N)(=O)=O)cc2)cnn(-c2ccc(F)c(F)c2)c1=O
67 | 102 to 104 | C/C(=C\c1ccc(C=O)cc1)c1ccc2c(c1)C(C)(C)CCO2
68 | 159 to 161 | CCOc1ccc(C(=O)OC)cc1C(N)=O
